From PMC11506774 (Biomolecules, 2024)
Values after ≈ are worked out from the molar mass of the structure shown.

Key:
[1] = test system: EV-A71/FY0805; assay: Receptor competition inhibition assay with cell-free heparan sulfate (HS); assay type: cell-based; conditions: peptide 62.5 µg/mL pre-incubated with HS (0–0.5 mg/mL) for 1 h, then mixed with 100 TCID50/50 µL EV-A71/FY0805, RD cells 24 h, crystal violet
Description: To confirm the interaction of P25 with receptor heparan sulfate (HS) on the cell surface, 50 µL P25 or its derivatives at a concentration of 62.5 µg/mL were pre-incubated with 50 µL cell-free HS (MCE, HY-101916, Princeton, NJ, USA) at different concentrations of 0–0.5 mg/mL at 37 °C for 1 h, mixed with 100 TCID50/50 µL of EV-A71/FY0805, and infected the pre-seeding RD monolayer cells on 96-well plates for 24 h. The CPE was detected and stained using crystal violet. The optical density (OD) at 550 nm was read using the TECAN Infinite 200 PRO instrument.

[2] = test system: EV-D68; assay: Immunostaining of viral VP1 after post-infection peptide treatment; assay type: cell-based; conditions: RD cells infected with 10 TCID50/50 µL EV-D68 for 1 h, washed, peptide at 125 µg/mL for 24 h, VP1 immune-stained area (ImageJ)
Description: RD cells at a density of 4 × 10^4/100 µL/well were seeded in 96-well plates 24 h prior to infection. Fifty microliters of the diluted peptide P25 were added under the following conditions: (1) pre-treatment: cells were pretreated with the peptides for 6 h, 4 h, and 2 h at 35 °C, followed by washing twice with DMEM before virus infection; (2) co-treatment: the peptide was added to the cells together with virus without washing; (3) post-treatment: […] to the medium. Co-treatment with a homemade neutralizing antibody of EV-D68 was employed as the reference control. An amount of 100 TCID50/50 µL was used for the CPE reading, while 10 TCID50/50 µL was used for immunostaining. After 22–24 h of incubation the cells were fixed using 4% formaldehyde and stained with crystal violet or an antibody. The staining of crystal violet was measured at 550 nm using a TECAN Infinite 200 PRO instrument. To detect EV-D68, the polyclonal anti-VP1 (Genetek, GTX132313, South San Francisco, CA, USA) was employed for immunostaining, while the rabbit polyclonal anti-VP1 for the staining of Echo11 was prepared in our laboratory. […] The number of plaques was counted using the CTL ELISPOT reader. […]

[3] = test system: EV-A71/FY0805; conditions: for IC50 (µg/mL) EV-A71 /FY0805: 24 h
[4] = test system: Poliovirus 3/nOPV3; conditions: 24 h
[5] = test system: RD cells; assay: Cytotoxicity assay (CCK-8); assay type: cell-based; conditions: 24 h, 2-fold dilutions from 1 mg/mL, CCK-8, absorbance 450 nm, mean ± SD, at least two independent experiments
Description: RD cells at a density of 4 × 10^4/100 µL/well were seeded in 96-well plates 24 h prior to the cytotoxicity assay. The peptide P25 and its derivatives were reconstituted in DMSO to a concentration of 25 mg/mL and then diluted to 1 mg/mL in DMEM with 100 mM HEPES, from which 2-fold serial dilutions of the peptides were produced, starting with the same medium. DMSO diluted in the same medium served as the control. Fifty microliters of diluted peptides and the control medium were added to the cells and cultured for 24 h. After cultivation, 5 µL of the enhanced CCK-8 reagent (Beyotime, C0043, Shanghai, China) were added directly to each well of the cell culture and cultured for an additional hour. Absorbance at 450 nm was detected using a TECAN Infinite 200 PRO instrument. The cell viability was normalized to the control, and the concentration at which a peptide inhibited 50% of the cell viability (CC50) was calculated using GraphPad Prism 9.5.1 (GraphPad software, San Diego, CA, USA).

[6] = test system: EV-A71/SZK2021; conditions: co-treatment, RD cells, 100 TCID50/50 µL, 24 h, crystal violet; mean ± SD, at least two independent experiments; NO = no inhibition observed
[7] = test system: Echo 30/WZ16; conditions: co-treatment, RD cells, 100 TCID50/50 µL, 24 h, crystal violet; mean ± SD, at least two independent experiments; >125 = protection less than 50% at 125 µg/mL; NO = no inhibition observed
[8] = test system: EV-D68/BCH895A; conditions: co-treatment, RD cells, 100 TCID50/50 µL, 24 h, crystal violet; mean ± SD, at least two independent experiments; >125 = protection less than 50% at 125 µg/mL; NO = no inhibition observed

SMILES: CC[C@H](C)[C@H](NC(=O)[C@H](Cc1c[nH]cn1)NC(=O)[C@H](CCCCN)NC(=O)[C@@H]1CCCN1C(=O)[C@H](CCCCN)NC(=O)[C@H](CCSC)NC(=O)[C@H](Cc1ccc(O)cc1)NC(=O)[C@@H](NC(=O)[C@H](CCCNC(=N)N)NC(=O)[C@@H](NC(=O)[C@@H](NC(=O)[C@@H](NC(=O)[C@@H](NC(=O)[C@H](Cc1ccccc1)NC(=O)CNC(=O)[C@@H](NC(=O)[C@@H]1CCCN1C(=O)[C@H](CCC(N)=O)NC(=O)[C@@H](N)Cc1c[nH]cn1)C(C)C)[C@@H](C)O)C(C)C)[C@@H](C)O)C(C)C)C(C)C)C(=O)N[C@@H](CCCCN)C(=O)O [Peptide P25.9]
- Interference of HS with the antiviral activity of the peptide [1]: interfered with by HS
- Inhibition of the synthesis of the viral protein [2]: significantly inhibited the synthesis of the viral protein
- IC50 (µg/mL) EV-A71 /FY0805 [3]: 13.02 ± 0.81 µg/mL (≈ 5.5 µM)
- IC50 (µg/mL) Poliovirus 3 /nOPV3 [4]: 108.10 ± 39.15 µg/mL (≈ 45.7 µM)

SMILES: CC[C@H](C)[C@H](NC(=O)[C@H](Cc1c[nH]cn1)NC(=O)[C@H](CCCCN)NC(=O)[C@@H]1CCCN1C(=O)[C@H](CCCCN)NC(=O)[C@H](CCSC)NC(=O)[C@H](Cc1ccc(O)cc1)NC(=O)[C@@H](NC(=O)[C@H](CCCNC(=N)N)NC(=O)[C@@H](NC(=O)[C@@H](NC(=O)[C@@H](NC(=O)[C@@H](NC(=O)[C@H](Cc1ccccc1)NC(=O)CN)[C@@H](C)O)C(C)C)[C@@H](C)O)C(C)C)C(C)C)C(=O)N[C@@H](CCCCN)C(=O)N[C@@H](C)C(=O)N[C@@H](Cc1c[nH]c2ccccc12)C(=O)N[C@@H](C)C(=O)O [Peptide P25]
- CC50 [5]: 256.43 ± 7.15 µg/mL (≈ 115 µM)
- IC50 of P25 at 6 h of pre-treatment ([3]; 6 h): 3.9 µg/mL
- IC50 (µg/mL) EV-A71 /FY0805 [3]: 32.35 ± 7.23 µg/mL (≈ 14.5 µM)
- IC50 (µg/mL) EV-A71 /SZK2021 [6]: 41.32 ± 8.46 µg/mL
- IC50 (µg/mL) Echo 30 /WZ16 [7]: >125 µg/mL
- IC50 (µg/mL) Poliovirus 3 /nOPV3 [4]: >125 µg/mL
- IC50 (µg/mL) EV-D68 /BCH895A [8]: 57.56 ± 5.81 µg/mL
